One data set addresses Plasmin (Homo sapiens, UniProt P00747). Briefly: Anti-plasmin activity (inhibition of TAME hydrolysis). Type of data set: biochemical. The conditions noted are these: read-out: ID50, plasmin. In a few lines:
(§1)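 Inhibition of enzymatic TAME (tosylarginine methyl ester) hydrolysis, per Muramatsu et al. Values are ID50, the molar concentration of compound inhibiting 50% of each enzyme's TAME-hydrolysing activity.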

Another data set has as its target T1, Clr (Homo sapiens, UniProt P00736).
T1 sequence (P00736 464-705 limits assumed): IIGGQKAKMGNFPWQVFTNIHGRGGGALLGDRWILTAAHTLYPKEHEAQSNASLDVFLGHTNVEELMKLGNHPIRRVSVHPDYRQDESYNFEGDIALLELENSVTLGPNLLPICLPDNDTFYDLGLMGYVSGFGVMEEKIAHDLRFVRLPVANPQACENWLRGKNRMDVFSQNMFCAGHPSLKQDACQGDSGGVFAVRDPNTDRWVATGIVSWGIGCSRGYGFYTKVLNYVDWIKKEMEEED
T1 sequence (P00736 18-463 limits assumed): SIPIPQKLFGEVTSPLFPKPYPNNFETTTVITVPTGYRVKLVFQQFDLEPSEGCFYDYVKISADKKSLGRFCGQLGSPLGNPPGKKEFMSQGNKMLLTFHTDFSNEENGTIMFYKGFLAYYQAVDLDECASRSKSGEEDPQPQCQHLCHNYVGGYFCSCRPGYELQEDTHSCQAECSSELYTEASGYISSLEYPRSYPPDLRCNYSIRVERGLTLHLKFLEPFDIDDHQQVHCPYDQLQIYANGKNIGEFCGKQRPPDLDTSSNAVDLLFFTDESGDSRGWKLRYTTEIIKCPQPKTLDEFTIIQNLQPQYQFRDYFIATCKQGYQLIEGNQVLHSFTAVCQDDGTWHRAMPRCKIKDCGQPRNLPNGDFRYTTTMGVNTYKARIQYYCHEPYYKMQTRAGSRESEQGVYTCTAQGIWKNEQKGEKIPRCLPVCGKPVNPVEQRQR
Briefly: Anti-Cl esterase activity, Clr (AAME hydrolysis). Type of data set: biochemical. The conditions noted are these: hydrolysis of AAME; read-out: Anti-Cl activity, Clr (ID50). Here is the method: The anti-Cl esterase ([…]) activity was determined according to the method of Okamura et al. [K. Okamura, M. Muramatsu and B. Fujii, Biochem. Biophys.

The next data set deals with Kallikrein. Briefly: Anti-kallikrein activity (inhibition of TAME hydrolysis). Type of data set: biochemical. The conditions noted are these: read-out: ID50, kallikrein. The essentials: as §1
The next data set has as its system complement. Briefly: Inhibition of complement mediated hemolysis. Type of data set: cell-based.
The target in a further data set is Thrombin (Homo sapiens, UniProt P00734). Briefly: biochemical. The conditions noted are these: TAME hydrolysis; read-out: ID50, thrombin.
The next data set concerns the target T2, Trypsin (Bos taurus, UniProt P00760).
T2 sequence (P00760 24-246): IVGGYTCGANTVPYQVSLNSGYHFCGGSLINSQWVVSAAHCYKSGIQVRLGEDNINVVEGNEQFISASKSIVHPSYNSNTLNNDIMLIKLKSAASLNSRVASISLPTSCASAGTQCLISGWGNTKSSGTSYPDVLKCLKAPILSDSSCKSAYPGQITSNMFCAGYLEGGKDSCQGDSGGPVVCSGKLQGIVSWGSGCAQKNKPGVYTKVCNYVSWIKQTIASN
Briefly: Anti-trypsin activity (inhibition of TAME hydrolysis). Type of data set: biochemical. The conditions noted are these: read-out: ID50, trypsin. In a few lines:
as §1

Data set [1] can be described thus: Toxicity, median lethal dose (LD50). The conditions noted are these: in vivo.
The target of a further data set is T3, Cls (Homo sapiens, UniProt P09871).
T3 sequence (P09871 438-688 limits assumed): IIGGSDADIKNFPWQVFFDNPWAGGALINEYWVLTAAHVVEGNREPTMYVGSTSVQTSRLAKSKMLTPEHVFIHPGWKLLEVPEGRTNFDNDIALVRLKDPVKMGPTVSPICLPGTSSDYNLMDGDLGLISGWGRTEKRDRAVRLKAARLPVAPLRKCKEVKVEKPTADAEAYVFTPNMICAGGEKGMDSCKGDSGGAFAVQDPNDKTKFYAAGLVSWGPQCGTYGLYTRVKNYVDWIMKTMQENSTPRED
T3 sequence (P09871 16-437 limits assumed): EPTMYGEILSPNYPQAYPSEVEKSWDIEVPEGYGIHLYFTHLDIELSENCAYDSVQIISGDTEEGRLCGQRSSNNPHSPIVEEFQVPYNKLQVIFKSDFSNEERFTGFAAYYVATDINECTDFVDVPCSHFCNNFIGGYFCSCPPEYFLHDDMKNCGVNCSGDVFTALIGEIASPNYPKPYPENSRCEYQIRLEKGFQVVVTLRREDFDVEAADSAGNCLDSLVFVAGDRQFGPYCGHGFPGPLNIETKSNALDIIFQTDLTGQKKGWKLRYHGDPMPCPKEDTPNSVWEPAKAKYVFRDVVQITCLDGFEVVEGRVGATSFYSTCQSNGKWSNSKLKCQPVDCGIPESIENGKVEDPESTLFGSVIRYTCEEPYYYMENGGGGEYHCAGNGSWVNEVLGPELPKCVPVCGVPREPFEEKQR
Briefly: Anti-Cl esterase activity, Cls (ATEE hydrolysis). Type of data set: biochemical. The conditions noted are these: hydrolysis of ATEE; read-out: Anti-Cl activity, Cls (50% inhibition). Here is the method: The anti-Cl esterase (Clr, Cls) activity was determined according to the method of Okamura et al. [K. Okamura, M. Muramatsu and B. Fujii, Biochem. Biophys. […] The figures in Table 2 have the following meanings:
Cls: Molar concentration of the test compound which inhibits 50% of the ability of Cls to hydrolyse ATEE (acetyltyrosin ethyl ester).

Each structure is given as a SMILES string.

Plasmin, sequence (P00747 581-810 limits assumed, species assumed): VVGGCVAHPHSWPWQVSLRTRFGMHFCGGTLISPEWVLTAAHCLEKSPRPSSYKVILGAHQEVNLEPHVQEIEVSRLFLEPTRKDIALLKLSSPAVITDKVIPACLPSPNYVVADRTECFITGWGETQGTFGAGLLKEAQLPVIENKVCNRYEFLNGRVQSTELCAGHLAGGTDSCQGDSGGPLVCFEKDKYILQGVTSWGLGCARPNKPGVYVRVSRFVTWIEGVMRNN
Plasmin, sequence (P00747 97-580 limits assumed, species assumed): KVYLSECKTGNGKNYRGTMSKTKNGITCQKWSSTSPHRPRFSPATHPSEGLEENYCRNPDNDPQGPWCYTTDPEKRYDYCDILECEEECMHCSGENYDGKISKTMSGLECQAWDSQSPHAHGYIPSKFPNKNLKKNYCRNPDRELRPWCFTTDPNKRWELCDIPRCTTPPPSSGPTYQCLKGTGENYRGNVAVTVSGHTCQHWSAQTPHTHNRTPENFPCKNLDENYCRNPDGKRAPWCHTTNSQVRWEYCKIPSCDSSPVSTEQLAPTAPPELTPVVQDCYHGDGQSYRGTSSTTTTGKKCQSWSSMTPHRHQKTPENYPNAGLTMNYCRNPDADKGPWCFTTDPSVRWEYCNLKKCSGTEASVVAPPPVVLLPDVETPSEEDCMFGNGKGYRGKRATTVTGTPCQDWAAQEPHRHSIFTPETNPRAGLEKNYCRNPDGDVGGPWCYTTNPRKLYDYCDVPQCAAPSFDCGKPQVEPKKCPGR

Regarding `N=C(N)Nc1ccc(C(=O)Oc2ccc(C(=N)N)cc2[N+](=O)[O-])cc1` [Compound 70, 4-amidino-2-nitrophenyl 4-guanidinobenzoate], the IC50 on Plasmin turned out to be 700 nM; at Clr, 3000 nM; with Kallikrein it was 40000 nM; on Thrombin, 500 nM; on Trypsin, 30 nM; on Cls, 200 nM. Also, the “Inhibition of complement mediated hemolysis (%)” value (shortened to “Inhibition … (%)”) was 100% in the data set on complement (compound at 1 × 10^-4), 100% with complement (compound at 1 × 10^-5), 97.0% in the data set on complement (compound at 1 × 10^-6) and 46.1% in the data set on complement (compound at 1 × 10^-7). For the same compound, the LD50 in data set [1] (ip) came out at 200 mg/kg; in data set [1] (po), 2500 mg/kg.
As for `N=C(N)c1ccc(OC(=O)c2ccc(OCc3ccccc3)cc2)c(C(=O)c2ccccc2)c1` [Compound 45, 4-amidino-2-benzoylphenyl 4-benzyloxybenzoate], the IC50 at Plasmin was found to be 300 nM; on Clr, 900 nM; in the data set with Kallikrein it was 400 nM; at Thrombin it was 200 nM; at Trypsin, 20 nM; on Cls it was 400 nM. For the same compound, the “Inhibition … (%)” value in the data set on complement (compound at 1 × 10^-4) is given as 0%; in the data set with complement (compound at 1 × 10^-5), 90.2%; in the data set on complement (compound at 1 × 10^-6) it was 6.0%; in the data set on complement (compound at 1 × 10^-7) it was 0%.
In the case of `N=C(N)c1ccc(OC(=O)c2ccc(CNC(=O)OCc3ccccc3)cc2)c([N+](=O)[O-])c1` [Compound 61], the IC50 turned out to be 200 nM on Plasmin; 400 nM at Clr; 1000 nM in the data set with Kallikrein; 400 nM on Thrombin; 200 nM at Trypsin; 300 nM on Cls. In addition, the “Inhibition … (%)” value in the data set with complement (compound at 1 × 10^-4) turned out to be 98.6%; in the data set with complement (compound at 1 × 10^-5), 100%; in the data set on complement (compound at 1 × 10^-6), 98.0%; in the data set on complement (compound at 1 × 10^-7), 76.1%.
For `CC(=O)Oc1ccc(C=CC(=O)Oc2ccc(C(=N)N)cc2C(=O)c2ccccc2)cc1` [Compound 54, 4-amidino-2-benzoylphenyl 4-acetyloxycinnamate], the IC50 was 300 nM at Plasmin; 2000 nM on Clr; 400 nM with Kallikrein; 90 nM at Thrombin; 20 nM on Trypsin; 200 nM at Cls. For the same compound, the “Inhibition … (%)” value in the data set with complement (compound at 1 × 10^-4) came out at 99.1%; in the data set with complement (compound at 1 × 10^-5) it was 98.6%; in the data set on complement (compound at 1 × 10^-6) it was 79.4%; in the data set with complement (compound at 1 × 10^-7), 41.1%.
On to `COc1cc(C(=N)N)ccc1OC(=O)[C@H]1CC[C@H](CNC(=O)OCc2ccccc2)CC1` [Compound 16], for which the IC50 on Plasmin was 300 nM; on Clr, greater than 10000 nM; in the data set with Kallikrein it was 5000 nM; on Thrombin, 1000 nM; at Trypsin it was 10000 nM; at Cls it was 800 nM. Also, the “Inhibition … (%)” value in the data set with complement (compound at 1 × 10^-4) was determined as 91.2%; in the data set with complement (compound at 1 × 10^-5) it was 61.8%; in the data set on complement (compound at 1 × 10^-6), 17.4%; with complement (compound at 1 × 10^-7), 3.4%.
In the case of `COc1cc(C(=N)N)ccc1OC(=O)c1ccc(C)cc1` [Compound 35], the IC50 at Plasmin is 5000 nM; at Clr it was 400 nM; in the data set on Kallikrein it was greater than 10000 nM; on Thrombin, 3000 nM; at Trypsin, 1000 nM; at Cls, 300 nM. The “Inhibition … (%)” value worked out at 88.8% with complement (compound at 1 × 10^-4), 43.9% in the data set with complement (compound at 1 × 10^-5), 29.9% with complement (compound at 1 × 10^-6) and 11.8% with complement (compound at 1 × 10^-7).
With `COC(=O)c1cc(C(=N)N)ccc1OC(=O)c1ccc(CN)cc1` [Compound 60], the IC50 is 4000 nM at Plasmin; 3000 nM on Clr; 2000 nM in the data set on Kallikrein; greater than 10000 nM at Thrombin; 1000 nM on Trypsin; 800 nM on Cls. In addition, the “Inhibition … (%)” value in the data set with complement (compound at 1 × 10^-4) came to 100%; in the data set with complement (compound at 1 × 10^-5), 100%; in the data set with complement (compound at 1 × 10^-6), 89.8%; with complement (compound at 1 × 10^-7), 44.4%.
Regarding `N=C(N)c1ccc(OC(=O)c2ccccc2)c(C(=O)O)c1` [Compound 24, 4-amidino-2-carboxyphenyl benzoate], the IC50 on Plasmin is greater than 10000 nM; at Clr, greater than 10000 nM; in the data set with Kallikrein it was greater than 10000 nM; on Thrombin, 4000 nM; on Trypsin, 3000 nM; at Cls, 2000 nM. Further, the “Inhibition … (%)” value with complement (compound at 1 × 10^-4) was found to be 88.2%; in the data set with complement (compound at 1 × 10^-5), 29.1%; in the data set with complement (compound at 1 × 10^-6), 11.0%; in the data set on complement (compound at 1 × 10^-7) it was 16.7%.
Consider `N=C(N)c1ccc(OC(=O)c2ccc(CN)cc2)c([N+](=O)[O-])c1` [Compound 62], for which the IC50 on Plasmin was 3000 nM; on Clr, 500 nM; in the data set on Kallikrein, 2000 nM; at Thrombin, 500000 nM; at Trypsin, 500 nM; at Cls it was 600 nM. For the same compound, the “Inhibition … (%)” value amounted to 100% in the data set on complement (compound at 1 × 10^-4), 100% in the data set on complement (compound at 1 × 10^-5), 100% in the data set on complement (compound at 1 × 10^-6) and 95.4% in the data set with complement (compound at 1 × 10^-7).
Consider `Cc1ccc(C(=O)Oc2ccc(C(=N)N)cc2[N+](=O)[O-])cc1` [Compound 37], for which the IC50 worked out at 400 nM at Plasmin; 40 nM at Clr; 700 nM in the data set on Kallikrein; 300 nM at Thrombin; 50 nM at Trypsin; 60 nM on Cls. Also, the “Inhibition … (%)” value with complement (compound at 1 × 10^-4) came out at 95.9%; in the data set with complement (compound at 1 × 10^-5), 37.3%; in the data set on complement (compound at 1 × 10^-6), 16.0%; in the data set with complement (compound at 1 × 10^-7), 0%.

As usually defined, the LD50 is the dose at which mortality reaches 50%. Read a low LD50 as greater toxicity.
